Patent US11351145B2, “Quercetin-based composition for treating rhinosinusitis” (APHABIO THERAPEUTICS, priority 2017, dated 2022)
Marks after values point to notes of the source that are not given here.

Tests used:
Assay type in all cases: in vivo, rabbit
[1] = test system: rhinosinusitis induced by lipopolysaccharide (LPS); experiment: Histological scoring of sino-nasal inflammation (score 0-3) in rabbits with LPS-induced rhinosinusitis; conditions: for Overall therapeutic effect / activity against rhinosinusitis: conclusion of the histological examination, compared to non-treated or placebo-treated animals; for Epithelial desquamation / Mucous gland damage: score 0-3 (0 absence of damage, 1 slightly, 2 moderately, 3 strongly damaged); for Epithelial desquamation / Mucous gland damage / Leukocyte infiltrate of mucous membrane / Mononuclear infiltrate of mucous membrane: median (1st; 3rd quartile), n = 6; for Epithelial desquamation / Mucous gland damage / Leukocyte infiltrate of mucous membrane / Mononuclear infiltrate of mucous membrane / Inflammation degree in different zones: Olfactory region / Inflammation degree in different zones: Respiratory region / Inflammation degree in different zones: Vestibule / Inflammation type: Post-inflammatory hyperplasia of goblet cells / Inflammation type: acute catarrhal rhinosinusitis / Inflammation type: acute purulent rhinosinusitis: intranasal once daily for seven days; for Leukocyte infiltrate of mucous membrane / Mononuclear infiltrate of mucous membrane: score 0-3 (0 none, 1: 1 to 5, 2: 6 to 10, 3: more than 10 cells in the zone); for Inflammation degree in different zones: Olfactory region / Inflammation degree in different zones: Respiratory region / Inflammation degree in different zones: Vestibule / Inflammation type: Post-inflammatory hyperplasia of goblet cells / Inflammation type: acute catarrhal rhinosinusitis / Inflammation type: acute purulent rhinosinusitis: scoring from 0 to 3, median (quartiles)
Description: (§1) 42 male rabbits were used in this study. Animals were separated into seven groups, each containing six rabbits. The 1st group served as an untreated control, the second group was treated with a 0.9% NaCl solution, and five experimental groups were used to test the different formulations: onion peel extract, quercetin+2-(3,4-dihydroxybenzoyl)-2,4,6-trihydroxy-3(2H)-benzofuranone quercetin, quercetin-4′-glycoside and protocatechuic acid.
(§2) Rhinosinusitis was induced by introduction of 100 μL of 1% lipopoysaccharide (LPS) in each nasal cavity of the rabbits for three days (Dong-Hyun Kim et all, 2011).
(§3) The following concentrations of composition were tested:
(§4) onion peel water extract—1 mg/mL;
(§5) the mixture of quercetin—0.009 mg/mL and 2-(3,4-dihydroxybenzoyl)-2,4,6-trihydroxy-3(2H)-benzofuranone—0.001 mg/mL;
(§6) quercetin-4′-glycoside—0.25 mg/mL;
(§7) protocatechuic acid—0.25 mg/mL.
(§8) The compounds were diluted in solutions of 0.9-1% sodium chloride or in the solution containing 0.75% NaCl+0.25% NaHCO3 heated to 37° C. before administration. Except for the mixture of quercetin+2-(3,4-dihydroxybenzoyl)-2,4,6-trihydroxy-3(2H)-benzofuranone, which was suspension, all formulations were slightly opalescent-colored solutions.
(§9) 2 mL of the solutions was administered intranasally in each nasal cavity once daily for seven days. In order to get the maximal contact of nasal cavity with the tested substances, rabbits were kept in the “head down” position during administration.
(§10) The day after the last administration of the substances, animals were sacrificed by an overdose of a general anesthetics: Zoletil (Virbac, France) and Rometar (Bioveta, Czech Republic).
(§11) After macroscopic examinations, the nasal parts of rabbits' heads were fixed in 10% formaldehyde for 24 hours, then decalcified for 14 days in a hydrochloric acid/water (25:1) solution. Then, the noses of the animals were sectioned transversally at four levels: A—at the incisors; B— in a zone posterior to the incisors, C— at the second palatal ridge, and D—at the first premolar tooth. Tissues were then washed with water for 12 hours and embedded in paraffin using conventional methods. Histological sections of 3-5 μm were prepared from these tissues using microtome. In order to examine goblet cells and their glucosamine content, the tissue sections were stained with alcian blue at pH 2.5. Some tissue sections were re-stained with haematoxylin and eosin for further histological examinations.
(§12) Morphological investigation of histological preparations was performed using optical microscope CarlZeissAxioScopeA1 (Germany) at magnifications of 25×, 50×, 100×, 200× and 400×. Microphotographs of samples were taken using a digital camera AxioCamlCc 1 and AxioVisionRel.4.8 software (Germany). Morphometric measurements were taken using AxioVisionRel.4.8 software (Germany).
The appearance, severity of acute catarrhal rhinosinusitis, acute purulent rhinosinusitis and occurrence of post-inflammatory hyperplasia of goblet cells were evaluated by examining the degree of inflammatory lesions in various zones: vestibule, respiratory region, olfactory region and paranasal sinuses.
The degree of epithelial desquamation and mucociliary gland damage was scored along a scale from 0 to 3, where:
The degree of mononuclear and leukocyte cell infiltration was evaluated by scoring from 0 to 3, where:
0—no mononuclear cells present in the zone of examination;
1—1 to 5 mononuclear cells present in the zone of examination;
2—6 to 10 mononuclear cells present in the zone of examination;
3—more than 10 mononuclear cells present in the zone of examination.
All data were analyzed using descriptive statistics. The normality of data distribution was verified by Shapiro-Wilks test. In the case of normality, the mean and the standard error of the mean (s.e.m) were calculated and presented in tables together with n (number of values). […] The differences between groups were analyzed using parametric or non-parametric tests depending on the distribution type. […]

[2] = test system: rhinosinusitis induced by lipopolysaccharide (LPS); experiment: Visual (macroscopic) examination of rabbits with LPS-induced rhinosinusitis; conditions: in words; after seven days of treatment
Description: as §1, §2, §8, §9
The nasal cavities of the animals were subjected to visual examinations immediately after euthanasia.

[3] = test system: rhinosinusitis induced by lipopolysaccharide (LPS); experiment: Goblet cell morphometric study (alcian blue staining) in rabbits with LPS-induced rhinosinusitis; conditions: for Number of alcian positive cells on 1 mm of epithelium / Number of goblet cells on 1 mm of epithelium / Ratio of alcian positive cells to total number of goblet cells, in %: rabbits, 2 mL intranasally in each nasal cavity once daily for seven days, M ± s.e.m., n = 6
Description: as §1, §2, §3, §4, §5, §6, §7, §8, §9, §10, §11, §12
Goblet cells were counted within 1 mm of the respiratory zone of the epithelium.
All data were analyzed using descriptive statistics. The normality of data distribution was verified by Shapiro-Wilks test. In the case of normality, the mean and the standard error of the mean (s.e.m) were calculated and presented in tables together with n (number of values). […] The differences between groups were analyzed using parametric or non-parametric tests depending on the distribution type. The analysis of normally distributed data was done using the unifactorial dispersion analysis test (ANOVA), and further post-hoc analysis was done using Tukey's method. The data not corresponding to the normal distribution were analyzed using the non-parametric Kruskal-Wallis test, and the differences between groups were analyzed using the Mann-Whitney test. The difference was determined at a significance level of 0.05.

SMILES | Epithelial desquamation (observation) ([1]; in words) | Overall therapeutic effect / activity against rhinosinusitis ([1]; in words) | Epithelial desquamation [1] | Mucous gland damage [1] | Leukocyte infiltrate of mucous membrane [1] | Mononuclear infiltrate of mucous membrane [1] | Inflammation degree in different zones: Olfactory region [1] | Inflammation degree in different zones: Respiratory region [1] | Inflammation degree in different zones: Vestibule [1] | Inflammation type: Post-inflammatory hyperplasia of goblet cells [1] | Inflammation type: acute catarrhal rhinosinusitis [1] | Inflammation type: acute purulent rhinosinusitis [1] | Macroscopic (visual) examination findings [2] | Change in the number of goblet cells on 1 mm of epithelium compared to control ([3]; in words, ANOVA and Tukey's test) | Number of alcian positive cells on 1 mm of epithelium [3] | Number of goblet cells on 1 mm of epithelium [3] | Ratio of alcian positive cells to total number of goblet cells, in % [3] [%] | Acute purulent rhinosinusitis (observation) ([1]; in words) | Post-inflammatory hyperplasia of the goblet cells (observation) ([1]; in words) | Leucocyte cell infiltration of the mucous membranes versus control group ([1]; in words, Kruskal-Wallis and Mann-Whitney tests)
O=c1c(O)c(-c2ccc(O[C@@H]3O[C@H](CO)[C@@H](O)[C@H](O)[C@H]3O)c(O)c2)oc2cc(O)cc(O)c12 [Quercetin-4′-glycoside, quercetin-4′-glycoside] | not observed | moderate activity | 0.0(0.0; 0.0)* score | 0.0(0.0; 1.0) score | 1.0(1.0; 2.0) score | 1.0 (1.0; 1.0) score | 0.5 | 1.0 | 0.0 | 1.0 | 1.0 | 0.0 | No external changes were observed | Increase | 21.8 ± 6.78 | 65.6 ± 6.03 | 35.8 ± 11.13 |  |  | 
O=c1c(O)c(-c2ccc(O)c(O)c2)oc2cc(O)cc(O)c12 [Quercetin, quercetin] |  |  | 0.5(0.0; 1.0) score | 0.5(0.0; 2.0) score | 2.0(2.0; 2.0) score | 1.0 (1.0; 1.0) score | 1.0 | 2.0 | 0.0 | 0.0 | 2.0 | 0.0 | No external changes were observed |  | 21.3 ± 6.49 | 43.0 ± 6.46 | 47.2 ± 12.33 | no sign | no sign | 
O=C(O)c1ccc(O)c(O)c1 [Protocatechuic acid, protocatechuic acid] |  | moderate activity | 0.0(0.0; 1.0) score | 1.0(0.0; 1.0) score | 0.5(0.0; 1.0)* score | 1.0 (1.0; 1.0) score | 1.0 | 1.0 | 0.0 | 0.5 | 1.0 | 0.0 | No external changes were observed |  | 16.3 ± 5.82 | 44.0 ± 6.76 | 35.0 ± 9.01 |  |  | lower than in control group
